Data published in US4493843A, “Indole and indoline carboxylic acid compounds and method of use” (May & Baker Limited, priority 1980, dated 1985).
Where a name gives a salt, the structure may show the parent alone. Read-outs that look alike come from different tables or passages of the source.

Test system: serum cholesterol and serum triglycerides
Assay: Hypolipidaemic activity in rats (compound in diet, last 7 of 10 days)
Format: in vivo, Male Wistar rats
Conditions: 7 days; for change in vivo at 0.2 % strength / change in vivo at 0.1 % strength / change in vivo at 0.03 % strength: Rattus norvegicus, po, 168 h; for change in vivo at 0.1 % strength: 0.1 % w/w dose in diet; for change in vivo at 0.03 % strength: 0.03 % w/w dose in diet
Description: Hypolipidaemic Activity in Rats
Male Wistar rats each weighing between 120 and 150 g were caged in groups of eight and fed a powdered diet for 10 days. For the last 7 days of that period the test compound was administered orally by mixing the compound in the diet and allowing the animals to feed normally. Food consumption was measured on day 9 for each group.
At noon on day 10 the animals were killed by inhalation of carbon dioxide from solid carbon dioxide. A sample of blood was removed by cardiac puncture and the serum cholesterol and serum triglycerides were analysed by means of an autoanalyser.
Control groups (receiving only the normal, unmedicated diet) were included with each test.
The percentage reductions in the concentrations of serum cholesterol and serum triglycerides were calculated by comparison with the simultaneous controls, for each concentration of the test compound used.

[1] = 0.2 % w/w dose in diet, read-out: % change in serum cholesterol compared with control
[2] = 0.2 % w/w dose in diet, read-out: % change in serum triglycerides compared with control
[3] = read-out: % change in serum cholesterol compared with control
[4] = read-out: % change in serum triglycerides compared with control

Compound | change in vivo at 0.2 % strength [1] [%] | change in vivo at 0.2 % strength [2] [%] | other results
CCCCCCCCCCCCCCCC1Cc2cc(C(=O)O)ccc2N1 (racemic) [Compound AAA, (RS)-2-(n-pentadecyl)indoline-5-carboxylic acid] | -12 | -55 | 
CCCCCCCC1Cc2cc(C(=O)O)ccc2N1 (racemic) [Compound ABB, (RS)-2-(n-heptyl)indoline-5-carboxylic acid] | -18 | -34 | 
CCCCCCCCCCC1Cc2cc(C(=O)O)ccc2N1 (racemic) [Compound ACC, (RS)-2-(n-decyl)indoline-5-carboxylic acid] | -26 | -71 | 
CCCCCCCCCCCCCCCCCC1Cc2cc(C(=O)O)ccc2N1 (racemic) [Compound ADD, (RS)-2-(n-heptadecyl)indoline-5-carboxylic acid] | -6 | -40 | 
CCCCCCCC1Cc2ccc(C(=O)O)cc2N1 (racemic) [Compound AEE, (RS)-2-(n-heptyl)indoline-6-carboxylic acid] | -22 | -37 | 
CCCCCCCCCCCC1Cc2ccc(C(=O)O)cc2N1 (racemic) [Compound AFF, (RS)-2-(n-undecyl)indoline-6-carboxylic acid] | -38 | -58 | 
CCCCCCCCCCCCCCC1Cc2ccc(C(=O)O)cc2N1 (racemic) [Compound AGG, (RS)-2-(n-tetradecyl)indoline-6-carboxylic acid] | -8 | -23 | 
CCCCCCCCCCCC1Cc2ccc(C(=O)O)cc2N1C (racemic) [Compound BII, (RS)-1-methyl-2-(n-undecyl)indoline-6-carboxylic acid] | 0 | -30 | 
CCCCCCCCCCCC1Cc2cc(C(=O)O)ccc2N1C (racemic) [Compound BJJ, (RS)-1-methyl-2-(n-undecyl)indoline-5-carboxylic acid] | -15 | -41 | 
CCCCCCCCCCCCCCCCC1CNc2ccc(C(=O)OC)cc21 (racemic) [Compound BNN, (RS)-methyl 3-(n-hexadecyl)indoline-5-carboxylate] | 7 | -20 | 
CCCCCCCCCCCCCCCCCCC1CNc2ccc(C(=O)O)cc21 (racemic) [Compound BOO, (RS)-3-(n-octadecyl)indoline-5-carboxylic acid] | 3 | 9 | 
CCCCCCCCCCC1CNc2ccc(C(=O)O)cc21 (racemic) [Compound BPP, (RS)-3-(n-decyl)indoline-5-carboxylic acid] | -3 | 0 | 
CCCCCCCCC1CNc2ccc(C(=O)O)cc21 (racemic) [Compound BQQ, (RS)-3-(n-octyl)indoline-5-carboxylic acid] | 11 | 31 | 
CCCCCCCCCCC1CNc2cc(C(=O)O)ccc21 (racemic) [Compound BYY, (RS)-3-(n-decyl)indoline-6-carboxylic acid] | -23 | -50 | 
CCCCCCCCCCCCCCCC1CNc2cc(C(=O)O)ccc21 (racemic) [Compound BZZ, (RS)-3-(n-pentadecyl)indoline-6-carboxylic acid] | -1 | -29 | 
CCCCCCCCCCCCC1CNc2cc(C(=O)O)ccc21 (racemic) [Compound CAA, (RS)-3-(n-dodecyl)indoline-6-carboxylic acid] | -28 | -46 | 
CCCCCCCCCCCCCCCCCCC1CNc2cc(C(=O)O)ccc21 (racemic) [Compound CBB, (RS)-3-(n-octadecyl)indoline-6-carboxylic acid] | 2 | -7 | 
CCCCCCCCC1CNc2cc(C(=O)O)ccc21 (racemic) [Compound CCC, (RS)-3-(n-octyl)indoline-6-carboxylic acid] | -11 | -28 | 
CCCCCCCCCCCCCCCCC1CNc2cc(C(=O)O)ccc21 (racemic) [Compound CDD, (RS)-3-(n-hexadecyl)indoline-6-carboxylic acid] | -19 | -41 | 
CCCCCCCCC1CNc2cc(C(=O)OC)ccc21 (racemic) [Compound CEE, (RS)-methyl 3-(n-octyl)indoline-6-carboxylate] | -16 | -16 | 

Compound | change in vivo at 0.2 % strength [1] [%] | change in vivo at 0.2 % strength [2] [%] | other results
CCCCCCCCCCCCCCCCC1CNc2cc(C(=O)OC)ccc21 (racemic) [Compound CFF, (RS)-methyl 3-(n-hexadecyl)indoline-6-carboxylate] | 6 | 10 | 
CCCCCCCCCCCc1cc2ccc(C(=O)OCC(O)CO)cc2[nH]1 (racemic) [Compound CVV, (RS)-2,3-dihydroxyprop-1-yl 2-(n-undecyl)indole-6-carboxylate] |  |  | change in vivo at 0.1 % strength [3]: -16%; change in vivo at 0.1 % strength [4]: -56%
CCCCCCCCCC(C)c1cc2cc(C(=O)O)ccc2[nH]1 (racemic) [Compound RR, (RS)-2-(1-methyldecyl)indole-5-carboxylic acid] | -7 | -88 | 
CCCCCCCCCC(C)c1cc2ccc(C(=O)O)cc2[nH]1 (racemic) [Compound VV, (RS)-2-(1-methyldecyl)indole-6-carboxylic acid] | -40 | -73 | 
CCCCCCCCCCCC1Cc2cc(C(=O)O)ccc2N1 (racemic) [Compound YY, (RS)-2-(n-undecyl)indoline-5-carboxylic acid] | -32 | -64 | change in vivo at 0.03 % strength [3]: -25%; change in vivo at 0.03 % strength [4]: -51%; change in vivo at 0.1 % strength [3]: -21%; change in vivo at 0.1 % strength [4]: -65%
CCCCCCCCCCC1Cc2ccc(C(=O)O)cc2N1 (racemic) [Compound ZZ, (RS)-2-(n-decyl)indoline-6-carboxylic acid] | -32 | -77 | 
CCCCCCCCCCCc1cc2ccc(C(=O)O)cc2[nH]1 [C sodium salt] |  |  | % change in serum cholesterol compared with control (0.2 % w/w dose in diet, oral): -41%; % change in serum triglycerides compared with control (0.2 % w/w dose in diet, oral): -46%
CCCCCCCCCCCCCc1cc2ccc(C(=O)O)cc2[nH]1 [Compound A, 2-(n-tridecyl)indole-6-carboxylic acid] | -26 | -33 | 
CCCCCCCCCCCCCCCCCCCCc1cc2cc(C(=O)O)ccc2[nH]1 [Compound AA, 2-(n-eicosyl)indole-5-carboxylic acid] | -36 | -57 | 
CCCCCCCc1cc2ccc(C(=O)OC)cc2[nH]1 [Compound AII, methyl 2-(n-heptyl)indole-6-carboxylate] | 7 | 20 | 
CCCCCCCc1cc2ccc(C(=O)OCCCC)cc2[nH]1 [Compound AKK, n-butyl 2-(n-heptyl)indole-6-carboxylate] | -3 | -10 | 
CCCCCCCCCCCCCc1cc2ccc(C(=O)OCC)cc2[nH]1 [Compound AMM, ethyl 2-(n-tridecyl)indole-6-carboxylate] | -4 | -12 | 
CCCCCCCCCCCCCCCc1cc2ccc(C(=O)OC)cc2[nH]1 [Compound ANN, methyl 2-(n-pentadecyl)indole-6-carboxylate] | 1 | -25 | 
CCCCCCCCCCCCCCCc1cc2ccc(C(=O)OCCCC)cc2[nH]1 [Compound APP, n-butyl 2-(n-pentadecyl)indole-6-carboxylate] | -2 | -20 | 
CCCCCCCCCCCCCCCCCCCCc1cc2ccc(C(=O)OCCCC)cc2[nH]1 [Compound AQQ, n-butyl 2-(n-eicosyl)indole-6-carboxylate] | 6 | -12 | 
CCCCCCCc1cc2cc(C(=O)OCCCC)ccc2[nH]1 [Compound ARR, n-butyl 2-(n-heptyl)indole-5-carboxylate] | 8 | 20 | 
CCCCCCCCCCCc1cc2cc(C(=O)OC)ccc2[nH]1 [Compound ATT, methyl 2-(n-undecyl)indole-5-carboxylate] | -16 | -70 | 
CCCCCCCCCCCc1cc2cc(C(=O)OCCCC)ccc2[nH]1 [Compound AUU, n-butyl 2-(n-undecyl)indole-5-carboxylate] | -14 | -57 | 
CCCCCCCCCCCCc1cc2cc(C(=O)OC)ccc2[nH]1 [Compound AVV, methyl 2-(n-dodecyl)indole-5-carboxylate] | -21 | -80 | change in vivo at 0.1 % strength [3]: -16%; change in vivo at 0.1 % strength [4]: -65%
CCCCCCCCCCCCCCCCCc1cc2cc(C(=O)OC)ccc2[nH]1 [Compound AWW, methyl 2-(n-heptadecyl)indole-5-carboxylate] | -24 |  | 
